The target of assay [1] is T1, beta-catenin/TCF4 engagement (Homo sapiens, UniProt P35222).
T1 construct: expressed in transfected cells; host or cells: HEK293
T1 sequence (P35222 1-781): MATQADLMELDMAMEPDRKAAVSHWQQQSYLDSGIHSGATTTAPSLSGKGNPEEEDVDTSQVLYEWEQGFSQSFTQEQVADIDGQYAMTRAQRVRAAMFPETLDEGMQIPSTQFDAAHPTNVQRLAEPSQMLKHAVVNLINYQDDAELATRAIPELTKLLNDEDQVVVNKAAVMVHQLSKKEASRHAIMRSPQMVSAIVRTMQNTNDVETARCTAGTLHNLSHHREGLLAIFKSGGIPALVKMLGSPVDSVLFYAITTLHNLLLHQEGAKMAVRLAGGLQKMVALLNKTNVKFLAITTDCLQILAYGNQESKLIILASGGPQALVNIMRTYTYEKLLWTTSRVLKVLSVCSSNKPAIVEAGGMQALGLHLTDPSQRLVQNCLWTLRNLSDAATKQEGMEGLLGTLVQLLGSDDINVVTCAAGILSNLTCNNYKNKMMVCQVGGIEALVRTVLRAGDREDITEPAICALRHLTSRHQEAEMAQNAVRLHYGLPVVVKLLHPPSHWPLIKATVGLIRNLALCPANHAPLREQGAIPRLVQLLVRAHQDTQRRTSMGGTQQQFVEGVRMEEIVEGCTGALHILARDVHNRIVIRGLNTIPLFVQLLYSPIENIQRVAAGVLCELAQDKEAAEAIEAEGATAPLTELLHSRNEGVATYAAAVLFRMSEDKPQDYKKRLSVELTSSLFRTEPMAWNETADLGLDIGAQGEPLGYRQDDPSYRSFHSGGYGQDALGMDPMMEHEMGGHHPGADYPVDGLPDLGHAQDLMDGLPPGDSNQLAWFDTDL
In words: Nano-BRET target engagement assay (B-cat-Halo & TCF4-Luc in HEK293 cells). Format: cell-based. The following applies: read-out: NanoBRET Abs IC50. (In general: In BRET a luciferase serves as donor, and the signal depends on an acceptor being close.)

Assay [2] has as its target T2, full-length beta-Catenin (Uniprot ID P35222) (Homo sapiens, UniProt P35222).
T2 construct: 10 nM full-length beta-Catenin (Uniprot ID P35222)
T2 sequence (P35222 1-781): T1 sequence (P35222 1-781)
In words: Fluorescence polarization IC50 (beta-catenin / 5FAM-TCF4 10-53 competition). Format: binding. The settings on record: fluorescence polarization; read-out: beta-Catenin FP IC50.

Structures are written as SMILES. pIC50: −log10 of the molar value. Bounds are passed on as bounds.

What is called pIC50 is the negative decadic logarithm of the IC50, by convention in mol/L. Consider `CC(=O)N1CCC[C@]12CC=CCCCC1(CCCC=CCCCOC(=O)N3CC[C@@](C(=O)N[C@@H](Cc4ccsc4)C(=O)N[C@@H](Cc4csc5ccccc45)C(=O)N[C@@H](CC(C)C)C(N)=O)(C3)NC(=O)[C@H](CC(C)C)NC(=O)[C@H](Cc3ccccc3)NC(=O)[C@H](C)NC(=O)[C@H](CCC(N)=O)NC(=O)[C@H](Cc3cccc(C(=O)O)c3)NC(=O)[C@H](CC(=O)O)NC1=O)NC(=O)[C@H](CC(C)(C)C)NC(=O)[C@H](CC(=O)O)NC2=O` (stereo partly drawn) [I-2056, Ac-PL3-Asp-Npg-B5-Asp-3COOHF-Gln-Ala-Phe-Leu-PyrS2-3Thi-BztA-Leu-NH2], for which the pIC50 in assay [1] was 5.19; in assay [2], 7.80.

Turning to `CC(=O)N1CCC[C@]12CC=CCCCC1(CCCC=CCCCOC(=O)N3CC[C@@](C(=O)N[C@@H](Cc4ccccc4C(F)(F)F)C(=O)N[C@@H](Cc4csc5ccccc45)C(=O)N[C@@H](C)C(N)=O)(C3)NC(=O)[C@H](CC(C)C)NC(=O)[C@H](Cc3ccccc3)NC(=O)[C@H](C)NC(=O)[C@H](CC(N)=O)NC(=O)[C@H](Cc3cccc(C(=O)O)c3)NC(=O)[C@H](CC(=O)O)NC1=O)NC(=O)[C@H](CC(C)(C)C)NC(=O)[C@H](CC(=O)O)NC2=O` (stereo partly drawn) [I-2058, Ac-PL3-Asp-Npg-B5-Asp-3COOHF-Asn-Ala-Phe-Leu-PyrS2-2F3MeF-BztA-Ala-NH2], the pIC50 is 5.41 in assay [1] and 8.00 in assay [2].

As for `CC(=O)N1CCC[C@]12CC=CCCCC1(CCCC=CCCCOC(=O)N3CC[C@@](C(=O)N[C@@H](Cc4ccccc4C(F)(F)F)C(=O)N[C@@H](Cc4csc5ccccc45)C(=O)N[C@@H](C)C(N)=O)(C3)NC(=O)[C@H](CC(C)C)NC(=O)[C@H](Cc3ccccc3)NC(=O)[C@H](C)NC(=O)[C@H](CO)NC(=O)[C@H](Cc3cccc(C(=O)O)c3)NC(=O)[C@H](CC(=O)O)NC1=O)NC(=O)[C@H](CC(C)(C)C)NC(=O)[C@H](CC(=O)O)NC2=O` (stereo partly drawn) [I-2059, Ac-PL3-Asp-Npg-B5-Asp-3COOHF-Ser-Ala-Phe-Leu-PyrS2-2F3MeF-BztA-Ala-NH2], the pIC50 was 5.32 in assay [1] and 7.42 in assay [2].

As to `CC(=O)N1CCC[C@]12CC=CCCCC1(CCCC=CCCCOC(=O)N3CC[C@@](C(=O)N[C@@H](Cc4ccccc4C(F)(F)F)C(=O)N[C@@H](Cc4csc5ccccc45)C(=O)N[C@@H](C)C(N)=O)(C3)NC(=O)[C@H](CC(C)C)NC(=O)[C@H](Cc3ccccc3)NC(=O)[C@H](C)NC(=O)[C@H]([C@@H](C)O)NC(=O)[C@H](Cc3cccc(C(=O)O)c3)NC(=O)[C@H](CC(=O)O)NC1=O)NC(=O)[C@H](CC(C)(C)C)NC(=O)[C@H](CC(=O)O)NC2=O` (stereo partly drawn) [I-2060, Ac-PL3-Asp-Npg-B5-Asp-3COOHF-Thr-Ala-Phe-Leu-PyrS2-2F3MeF-BztA-Ala-NH2], the pIC50 in assay [1] is 5.02; in assay [2], 7.25.

`CC(=O)N1CCC[C@]12CC=CCCCC1(CCCC=CCCCOC(=O)N3CC[C@@](C(=O)N[C@@H](Cc4ccccc4Cl)C(=O)N[C@@H](Cc4csc5ccccc45)C(=O)N[C@@H](CCS(C)(=O)=O)C(N)=O)(C3)NC(=O)[C@H](CC(C)C)NC(=O)[C@H](Cc3ccccc3)NC(=O)[C@H](C)NC(=O)[C@H](C)NC(=O)[C@H](Cc3cccc(C(=O)O)c3)NC(=O)[C@H](CC(=O)O)NC1=O)NC(=O)[C@H](CC(C)(C)C)NC(=O)[C@H](CC(=O)O)NC2=O` (stereo partly drawn) [I-2062, Ac-PL3-Asp-Npg-B5-Asp-3COOHF-Ala-Ala-Phe-Leu-PyrS2-2C1F-BztA-Met2O-NH2]: the values for the pIC50 in assay [1] and in assay [2] were 5.52 and 7.39, respectively.

In the case of `CC(=O)N1CCC[C@]12CC=CCCCC1(CCCC=CCCCOC(=O)N3CC[C@@](C(=O)N[C@@H](Cc4ccccc4C(F)(F)F)C(=O)N[C@@H](Cc4csc5ccccc45)C(=O)N[C@@H](CCS(C)(=O)=O)C(N)=O)(C3)NC(=O)[C@H](CC(C)C)NC(=O)[C@H](Cc3ccccc3)NC(=O)[C@H](C)NC(=O)[C@H](C)NC(=O)[C@H](Cc3cccc(C(=O)O)c3)NC(=O)[C@H](CC(=O)O)NC1=O)NC(=O)[C@H](CC(C)(C)C)NC(=O)[C@H](CC(=O)O)NC2=O` (stereo partly drawn) [I-2063, Ac-PL3-Asp-Npg-B5-Asp-3COOHF-Ala-Ala-Phe-Leu-PyrS2-2F3MeF-BztA-Met2O-NH2], the values for the pIC50 in assay [1] and in assay [2] were 5.46 and 7.25, respectively.

As for `CC(=O)N1CCC[C@]12CC=CCCCC1(CCCC=CCCCOC(=O)N3CC[C@@](C(=O)N[C@@H](Cc4ccsc4)C(=O)N[C@@H](Cc4csc5ccccc45)C(=O)N[C@@H](C)C(N)=O)(C3)NC(=O)[C@H](CC(C)C)NC(=O)[C@H](Cc3ccccc3)NC(=O)[C@H](C)NC(=O)[C@H](CCS(C)(=O)=O)NC(=O)[C@H](Cc3cccc(C(=O)O)c3)NC(=O)[C@H](CC(=O)O)NC1=O)NC(=O)[C@H](CC(C)(C)C)NC(=O)[C@H](CC(=O)O)NC2=O` (stereo partly drawn) [I-2064, Ac-PL3-Asp-Npg-B5-Asp-3COOHF-Met2O-Ala-Phe-Leu-PyrS2-3Thi-BztA-Ala-NH2], the pIC50 in assay [1] is 4.93; in assay [2] it was 7.80.

With `CC(=O)N1CCC[C@]12CC=CCCCC1(CCCC=CCCCOC(=O)N3CC[C@@](C(=O)N[C@@H](Cc4ccccc4)C(=O)N[C@@H](Cc4csc5ccccc45)C(=O)N[C@@H](C)C(N)=O)(C3)NC(=O)[C@H](CC(N)=O)NC(=O)[C@H](Cc3ccccc3)NC(=O)[C@H](C)NC(=O)[C@H](CCCCNC(C)C)NC(=O)[C@H](CCC(N)=O)NC(=O)[C@H](CC(=O)O)NC1=O)NC(=O)[C@H](CC1CCCCC1)NC(=O)[C@H](CC(N)=O)NC2=O` (stereo partly drawn) [I-2065, Ac-PL3-Asn-Cha-B5-Asp-Gln-iPrLys-Ala-Phe-Asn-PyrS2-Phe-BztA-Ala-NH2], the negative-log IC50 (pIC50) in assay [1] was under 4.70; in assay [2] it was 6.84.

On to `CC(=O)N1CCC[C@]12CC=CCCCC1(CCCC=CCCCOC(=O)N3CC[C@@](C(=O)N[C@@H](Cc4ccccc4)C(=O)N[C@@H](Cc4csc5ccccc45)C(=O)N[C@@H](CCO)C(N)=O)(C3)NC(=O)[C@H](CC(N)=O)NC(=O)[C@H](Cc3ccccc3)NC(=O)[C@H](C)NC(=O)[C@H](CCC(N)=O)NC(=O)[C@H](CCC(N)=O)NC(=O)[C@H](CC(=O)O)NC1=O)NC(=O)[C@H](CC1CCCCC1)NC(=O)[C@H](CC(N)=O)NC2=O` (stereo partly drawn) [I-2067, Ac-PL3-Asn-Cha-B5-Asp-Gln-Gln-Ala-Phe-Asn-PyrS2-Phe-BztA-Hse-NH2], for which the pIC50 is under 4.70 in assay [1] and 6.74 in assay [2].

As for `CC(=O)N1CCC[C@]12CC=CCCCC1(CCCC=CCCCOC(=O)N3CC[C@@](C(=O)N[C@@H](Cc4ccccc4)C(=O)N[C@@H](Cc4csc5ccccc45)C(=O)N[C@@H](Cc4ccccc4)C(N)=O)(C3)NC(=O)[C@H](CC(N)=O)NC(=O)[C@H](Cc3ccccc3)NC(=O)[C@H](C)NC(=O)[C@H](CCCCNC(C)C)NC(=O)[C@H](CCC(N)=O)NC(=O)[C@H](CC(=O)O)NC1=O)NC(=O)[C@H](CC1CCCCC1)NC(=O)[C@H](CC(N)=O)NC2=O` (stereo partly drawn) [I-2068, Ac-PL3-Asn-Cha-B5-Asp-Gln-iPrLys-Ala-Phe-Asn-PyrS2-Phe-BztA-Phe-NH2], the pIC50 in assay [1] is under 4.70; in assay [2], 6.47.

For `CC(=O)N1CCC[C@]12CC=CCCCC1(CCCC=CCCCOC(=O)N3CC[C@@](C(=O)N[C@@H](Cc4ccccc4)C(=O)N[C@@H](Cc4csc5ccccc45)C(=O)N[C@@H](C)C(N)=O)(C3)NC(=O)[C@H](CC(N)=O)NC(=O)[C@H](Cc3ccccc3)NC(=O)[C@H](C)NC(=O)[C@H](Cc3c[nH]cn3)NC(=O)[C@H](CCC(N)=O)NC(=O)[C@H](CC(=O)O)NC1=O)NC(=O)[C@H](CC1CCCCC1)NC(=O)[C@H](CC(N)=O)NC2=O` (stereo partly drawn) [I-2069, Ac-PL3-Asn-Cha-B5-Asp-Gln-His-Ala-Phe-Asn-PyrS2-Phe-BztA-Ala-NH2], the figures for the pIC50 in assay [1] and in assay [2] were under 4.70 and 6.59, respectively.

Take `CC(=O)N1CCC[C@]12CC=CCCCC1(CCCC=CCCCOC(=O)N3CC[C@@](C(=O)N[C@@H](Cc4ccccc4)C(=O)N[C@@H](Cc4csc5ccccc45)C(=O)N[C@@H](C)C(N)=O)(C3)NC(=O)[C@H](CC(N)=O)NC(=O)[C@H](Cc3ccccc3)NC(=O)[C@H](C)NC(=O)[C@H](CCC(N)=O)NC(=O)[C@H](CCC(N)=O)NC(=O)[C@H](CC(=O)O)NC1=O)NC(=O)[C@H](CC1CCCCC1)NC(=O)[C@H](CC(N)=O)NC2=O` (stereo partly drawn) [I-2070, Ac-PL3-Asn-Cha-B5-Asp-Gln-Gln-Ala-Phe-Asn-PyrS2-Phe-BztA-Ala-NH2]: the pIC50 in assay [1] is under 4.70; in assay [2], 6.72.

In the case of `CC(=O)N1CCC[C@]12CC=CCCCC1(CCCC=CCCCOC(=O)N3CC[C@@](C(=O)N[C@@H](Cc4ccsc4)C(=O)N[C@@H](Cc4csc5ccccc45)C(=O)N[C@@H](CCC(N)=O)C(N)=O)(C3)NC(=O)[C@H](CC(C)C)NC(=O)[C@H](Cc3ccccc3)NC(=O)[C@H](C)NC(=O)[C@H](C)NC(=O)[C@H](CCn3cc(CCC(=O)O)nn3)NC(=O)[C@H](CC(=O)O)NC1=O)NC(=O)[C@H](CC(C)(C)C)NC(=O)[C@H](CC(=O)O)NC2=O` (stereo partly drawn) [I-2076, Ac-PL3-Asp-Npg-B5-Asp-[CH2CH2CO2H]TriAzDab-Ala-Ala-Phe-Leu-PyrS2-3Thi-BztA-Gln-NH2], the values for the pIC50 in assay [1] and in assay [2] were 4.85 and 7.80, respectively.

Source of the values: patent US20240116985A1, “STAPLED PEPTIDES AND METHODS THEREOF” (priority 2020, published 2024).
